Measurements taken from US12054498B2, “Heteroaromatic macrocyclic ether chemotherapeutic agents” (Nuvalent, Inc., priority 2020, dated 2024).

Tests used:
[1] = biological target: T1, ALK-wt (Homo sapiens, UniProt Q9UM73); assay: Biochemical kinase assay, ALK-wt kinase domain; conditions: apparent inhibitory constant, Morrison equation; ATP 2 mM in substrate solution; read-out: ALK-wt Ki^app
T1 construct: purchased Carna 08-518
Outline: (§1)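 Apparent Ki values come from fitting initial reaction rates against inhibitor concentration to the Morrison equation. Rates were taken from the linear phase of fluorogenic substrate phosphorylation (AQT0101 for ALK and ROS1, AQT0104 for TRKA; 26 μM in substrate solution with 2 mM ATP), monitored at 485 nm over 120 min at 30° C.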

[2] = biological target: T2, ALK L1196M/G1202R (Homo sapiens, UniProt Q9UM73, G1202R/L1196M); assay: Biochemical kinase assay, ALK L1196M/G1202R kinase domain; conditions: apparent inhibitory constant, Morrison equation; ATP 2 mM in substrate solution; read-out: ALK-L1196M-G1202R Ki^app
T2 construct: purchased SignalChem A19-12NG
T2 sequence (Q9UM73 1116-1392 L1196M/G1202R limits assumed): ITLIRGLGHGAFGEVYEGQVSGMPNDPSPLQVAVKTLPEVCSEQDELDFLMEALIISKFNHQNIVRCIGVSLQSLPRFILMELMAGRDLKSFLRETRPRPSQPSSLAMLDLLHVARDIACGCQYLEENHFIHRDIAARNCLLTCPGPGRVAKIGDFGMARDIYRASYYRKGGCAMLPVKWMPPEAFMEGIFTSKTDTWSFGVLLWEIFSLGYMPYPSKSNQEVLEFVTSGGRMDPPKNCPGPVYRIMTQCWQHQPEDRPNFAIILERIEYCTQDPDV
Outline: as §1

[3] = biological target: T3, ROS1-wt (Homo sapiens, UniProt P08922); assay: Biochemical kinase assay, ROS1-wt kinase domain; conditions: apparent inhibitory constant, Morrison equation; ATP 2 mM in substrate solution; read-out: ROS1-wt Ki^app
T3 construct: purchased Carna 08-163
T3 sequence (P08922 1945-2222 limits assumed): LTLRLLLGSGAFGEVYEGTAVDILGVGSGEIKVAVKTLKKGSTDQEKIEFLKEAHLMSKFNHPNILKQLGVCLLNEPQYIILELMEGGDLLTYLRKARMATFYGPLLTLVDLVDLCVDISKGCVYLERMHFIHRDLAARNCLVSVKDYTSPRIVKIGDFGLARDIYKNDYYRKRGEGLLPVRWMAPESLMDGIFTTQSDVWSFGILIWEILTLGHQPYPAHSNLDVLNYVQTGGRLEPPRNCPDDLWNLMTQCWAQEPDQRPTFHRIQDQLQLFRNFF
Outline: (§2)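 Compounds, as 100-fold DMSO stocks, were dispensed first, then substrate mix was added (ATP 2 mM, AQT0101 26 μM, in 50 mM HEPES pH 7.5/10 mM MgCl2). Reactions ran at 30 °C with fluorescence logged every 2 min over 120 min. Apparent inhibition constants came from fitting rates to Morrison's tight-binding equation.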

[4] = biological target: T4, ROS1-G2032R (Homo sapiens, UniProt P08922, G2032R); assay: Biochemical kinase assay, ROS1-G2032R kinase domain; conditions: apparent inhibitory constant, Morrison equation; ATP 2 mM in substrate solution; read-out: ROS1-G2032R Ki^app
T4 construct: purchased SignalChem R14-12BG
T4 sequence (P08922 1945-2222 G2032R limits assumed): as the sequence (P08922 1945-2222 limits assumed) above, with G88R counted along it
Outline: as §2

[5] = biological target: T5, TRKA-wt (Homo sapiens, UniProt P04629); assay: Biochemical kinase assay, TRKA-wt kinase domain; conditions: apparent inhibitory constant, Morrison equation; ATP 2 mM in substrate solution; read-out: TRKA-wt Ki^app
T5 construct: or TRKA-wt (1 nM, BPS Bio, 40280) kinase domains in buffer; purchased BPS Bio 40280
T5 sequence (P04629 510-781 limits assumed): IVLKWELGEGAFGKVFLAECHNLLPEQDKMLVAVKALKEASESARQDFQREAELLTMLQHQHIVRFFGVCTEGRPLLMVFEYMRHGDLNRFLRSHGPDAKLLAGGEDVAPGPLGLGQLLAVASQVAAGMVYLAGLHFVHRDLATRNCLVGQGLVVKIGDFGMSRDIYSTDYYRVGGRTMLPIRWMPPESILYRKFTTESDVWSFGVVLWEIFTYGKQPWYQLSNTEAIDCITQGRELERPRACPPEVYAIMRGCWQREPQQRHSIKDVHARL
Outline: as §1

[6] = biological target: T6, Ba/F3 cells CD74-ROS1 wild-type (wt) (Homo sapiens, UniProt P08922); assay: Ba/F3 cell proliferation assay, CD74-ROS1 wild-type; assay type: cell-based; conditions: 72 hours, CellTiter-Glo
T6 construct: fusion of the C-terminus of ROS1 with the N-terminus of various partner proteins; host or cells: Ba/F3 (RIKEN), retroviral pMSCV-puro; the other entry of the earlier key: CD74 (P04233, HLA class II histocompatibility antigen gamma chain)
T6 sequence (P08922 1883-2347 limits assumed): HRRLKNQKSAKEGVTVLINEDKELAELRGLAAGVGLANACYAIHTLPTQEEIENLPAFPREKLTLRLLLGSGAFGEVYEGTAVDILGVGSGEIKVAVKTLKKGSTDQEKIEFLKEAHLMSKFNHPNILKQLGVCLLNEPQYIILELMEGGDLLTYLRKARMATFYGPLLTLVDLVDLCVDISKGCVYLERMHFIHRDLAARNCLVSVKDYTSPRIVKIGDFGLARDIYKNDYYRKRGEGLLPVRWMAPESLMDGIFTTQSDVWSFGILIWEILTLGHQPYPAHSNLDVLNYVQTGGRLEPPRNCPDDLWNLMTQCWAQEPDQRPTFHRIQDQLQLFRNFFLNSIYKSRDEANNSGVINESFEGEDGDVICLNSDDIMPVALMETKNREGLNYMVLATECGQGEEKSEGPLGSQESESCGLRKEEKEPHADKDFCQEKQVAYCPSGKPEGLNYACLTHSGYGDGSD
Outline: (§3)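 Cells seeded 1 day, then treated with 3-fold compound dilutions for 72 h; viability by CellTiter-Glo luminescence. IC50 from percent inhibition by four-parameter logistic fit.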

[7] = biological target: T7, Ba/F3 cells CD74-ROS1 G2032R (Homo sapiens, UniProt P08922, G2032R); assay: Ba/F3 cell proliferation assay, CD74-ROS1 G2032R; assay type: cell-based; conditions: 72 hours, CellTiter-Glo
T7 construct: fusion of the C-terminus of ROS1 with the N-terminus of various partner proteins; host or cells: Ba/F3 (RIKEN), retroviral pMSCV-puro; the other entry of the earlier key: CD74 (P04233, HLA class II histocompatibility antigen gamma chain)
T7 sequence (P08922 1883-2347 G2032R limits assumed): as the sequence (P08922 1883-2347 limits assumed) above, with G150R counted along it
Outline: as §3

[8] = biological target: T8, Ba/F3 cells EML4-ALK wt (variant 1) (Homo sapiens, UniProt Q9UM73); assay: Ba/F3 cell proliferation assay, EML4-ALK wt (variant 1); assay type: cell-based; conditions: 72 hours, CellTiter-Glo
T8 construct: echinoderm microtubule-associated protein-like 4 (EML4) gene and the ALK tyrosine kinase domain; host or cells: Ba/F3 (RIKEN), retroviral pMSCV-puro; the other entry of the earlier key: EML4 (Q9HC35, Echinoderm microtubule-associated protein-like 4)
T8 sequence (Q9UM73 with tags, fused parts or gaps): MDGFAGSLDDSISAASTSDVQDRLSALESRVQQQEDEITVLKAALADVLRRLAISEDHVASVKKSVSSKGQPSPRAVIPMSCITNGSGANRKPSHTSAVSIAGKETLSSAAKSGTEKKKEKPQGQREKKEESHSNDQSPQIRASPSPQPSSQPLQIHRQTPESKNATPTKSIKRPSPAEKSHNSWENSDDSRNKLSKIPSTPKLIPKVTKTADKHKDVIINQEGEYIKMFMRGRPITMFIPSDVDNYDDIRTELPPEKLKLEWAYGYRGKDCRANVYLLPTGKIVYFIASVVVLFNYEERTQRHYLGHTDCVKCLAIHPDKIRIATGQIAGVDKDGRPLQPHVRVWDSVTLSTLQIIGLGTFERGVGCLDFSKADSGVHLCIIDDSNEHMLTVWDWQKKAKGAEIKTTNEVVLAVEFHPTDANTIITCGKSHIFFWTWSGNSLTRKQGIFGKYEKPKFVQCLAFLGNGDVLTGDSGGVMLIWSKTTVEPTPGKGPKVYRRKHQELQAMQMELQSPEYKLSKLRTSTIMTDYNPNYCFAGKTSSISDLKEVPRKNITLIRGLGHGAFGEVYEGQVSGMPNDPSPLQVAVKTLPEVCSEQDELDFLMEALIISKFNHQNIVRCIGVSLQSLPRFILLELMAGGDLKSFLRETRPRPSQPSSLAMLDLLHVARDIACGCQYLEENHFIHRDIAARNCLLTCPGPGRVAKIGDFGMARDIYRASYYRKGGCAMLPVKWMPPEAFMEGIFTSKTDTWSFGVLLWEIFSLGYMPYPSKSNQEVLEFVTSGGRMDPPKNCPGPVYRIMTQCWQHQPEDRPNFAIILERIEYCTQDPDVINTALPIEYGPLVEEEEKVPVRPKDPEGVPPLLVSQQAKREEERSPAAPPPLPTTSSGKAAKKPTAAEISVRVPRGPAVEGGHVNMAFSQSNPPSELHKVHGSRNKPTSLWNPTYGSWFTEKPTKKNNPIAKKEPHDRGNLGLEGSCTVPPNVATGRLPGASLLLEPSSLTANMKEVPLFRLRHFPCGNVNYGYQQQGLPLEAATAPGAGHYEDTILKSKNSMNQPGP
Outline: (§4)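 Ba/F3 lines stably expressing the fusion (retroviral pMSCV-puro, selected by IL-3 withdrawal plus puromycin 0.8 μg/mL, monoclonal) were seeded at 1,000 cells/well, dosed next day with 3-fold compound dilutions, and incubated 72 hours. CellTiter-Glo luminescence gave percent inhibition; IC50 by four-parameter logistic fit.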

[9] = biological target: T9, Ba/F3 cells EML4-ALK L1196M/G1202R (variant 1) (Homo sapiens, UniProt Q9UM73, G1202R/L1196M); assay: Ba/F3 cell proliferation assay, EML4-ALK L1196M/G1202R (variant 1); assay type: cell-based; conditions: 72 hours, CellTiter-Glo
T9 construct: echinoderm microtubule-associated protein-like 4 (EML4) gene and the ALK tyrosine kinase domain; host or cells: Ba/F3 (RIKEN), retroviral pMSCV-puro; the other entry of the earlier key: EML4 (Q9HC35, Echinoderm microtubule-associated protein-like 4)
T9 sequence (Q9UM73 with tags, fused parts or gaps L1196M/G1202R): as the sequence (Q9UM73 with tags, fused parts or gaps) above, with L635M, G641R counted along it
Outline: as §4

[10] = biological target: T10, Ba/F3 cells TPM3-TRKA (Homo sapiens, UniProt P04629); assay: Ba/F3 cell proliferation assay, TPM3-TRKA; assay type: cell-based; conditions: 72 hours, CellTiter-Glo, read-out: TPM3-NTRK1-wt IC50
T10 construct: host or cells: Ba/F3 (RIKEN), retroviral pMSCV-puro; the other entry of the earlier key: TPM3 (P06753, Tropomyosin alpha-3 chain)
T10 sequence (P04629 510-796 limits assumed): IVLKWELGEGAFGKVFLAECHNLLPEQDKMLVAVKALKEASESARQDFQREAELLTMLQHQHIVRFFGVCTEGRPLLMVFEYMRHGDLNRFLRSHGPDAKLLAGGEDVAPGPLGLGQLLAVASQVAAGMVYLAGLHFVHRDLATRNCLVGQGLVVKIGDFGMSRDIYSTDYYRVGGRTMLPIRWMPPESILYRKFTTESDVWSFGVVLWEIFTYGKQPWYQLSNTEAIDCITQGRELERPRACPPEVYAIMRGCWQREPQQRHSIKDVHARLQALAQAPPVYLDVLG
Outline: as §4

[11] = test system: TPM3-NTRK1-wt IC50 / primary target IC50 (e.g. CD74-ROS1-wt); assay: TRKA selectivity in Ba/F3 cells (TRKA potency divided by primary target potency); assay type: cell-based; conditions: for TPM3-NTRK1-wt/CD74-ROS1-G2032R selectivity ratio: TRKA potency / CD74-ROS1-G2032R potency; for TPM3-NTRK1-wt/CD74-ROS1-wt selectivity ratio: TRKA potency / CD74-ROS1-wt potency; for TPM3-NTRK1-wt/EML4-ALK-L1196M-G1202R selectivity ratio: TRKA potency / EML4-ALK-L1196M-G1202R potency; for TPM3-NTRK1-wt/EML4-ALK-wt selectivity ratio: TRKA potency / EML4-ALK-wt potency
Procedure: TRKA selectivity was calculated by dividing a compound's TRKA potency by its primary target potency (e.g. TPM3-NTRK1-wt IC50/CD74-ROS1-wt IC50). Compound selectivity can be interpreted by binning ratio values: bin A for very high selectivity, ratio >30-fold; bin B for high selectivity, ratio >10-fold; bin C for moderate selectivity, ratio ≥1; and bin D for low selectivity, ratio <1. […] (nd=not determined).

T1 sequence (Q9UM73 1116-1392 limits assumed): as the sequence (Q9UM73 1116-1392 L1196M/G1202R limits assumed) above, with M81L, R87G counted along it

Compound | Ki [1] | Ki [2] | Ki [3] | Ki [4] | Ki [5] | IC50 [6] | IC50 [7] | IC50 [8] | IC50 [9] | IC50 [10] | TPM3-NTRK1-wt/CD74-ROS1-G2032R selectivity ratio [11] | TPM3-NTRK1-wt/CD74-ROS1-wt selectivity ratio [11] | TPM3-NTRK1-wt/EML4-ALK-L1196M-G1202R selectivity ratio [11] | TPM3-NTRK1-wt/EML4-ALK-wt selectivity ratio [11]
CCn1ncc2c1-c1cnc(N)c(c1)O[C@H](C)c1cc(F)ccc1-c1nsnc1C2 [Example 62, (19R)-3-ethyl-16-fluoro-19-methyl-20-oxa-10-thia-3,4,9,11,23-pentaazapentacyclo[19.3.1.0^2,^6.0^8,^12.0^13,^18]pentacosa-1(24),2(6),4,8,11,13,15,17,21(25),22-decaen-22-amine] | < 50 nM | < 50 nM | < 50 nM | < 50 nM | 50 to 500 nM | 0.1 to 50 nM | 0.1 to 50 nM | 0.1 to 50 nM | 0.1 to 50 nM | 50 to 500 nM | A (bin A for very high selectivity, ratio >30-fold) | A (bin A for very high selectivity, ratio >30-fold) | C (bin C for moderate selectivity, ratio ≥1) | A (bin A for very high selectivity, ratio >30-fold)
C[C@H]1Oc2cc(cnc2N)-c2c(CC3CC3)noc2Cc2nn(C)nc2-c2ccc(F)cc21 [Example 63, (19R)-3-(cyclopropylmethyl)-16-fluoro-10,19-dimethyl-5,20-dioxa-4,9,1 0,11,23-pentaazapentacyclo [19.3.1.0^2,^6.0^8,^12.0^13,^18]pentacosa-1(24),2(6),3,8,11,13,15,17,21(25),22-decaen-22-amine] | < 50 nM | < 50 nM | < 50 nM | < 50 nM | > 500 nM | 0.1 to 50 nM | 0.1 to 50 nM | 0.1 to 50 nM | 0.1 to 50 nM | 50 to 500 nM | A (bin A for very high selectivity, ratio >30-fold) | A (bin A for very high selectivity, ratio >30-fold) | B (bin B for high selectivity, ratio >10-fold) | A (bin A for very high selectivity, ratio >30-fold)
Cc1nn(CC2CC2)c2c1Cn1ncnc1-c1ccc(F)cc1[C@@H](C)Oc1cc-2cnc1N [Example 64, (19R)-3-(cyclopropylmethyl)-16-fluoro-5,19-dimethyl-20-oxa-3,4,8,9,11,23-hexaazapentacyclo[19.3.1.0^2,^6.0^8,^12.0^13,^18]pentacosa-1(24),2(6),4,9,11,13,15,17,21(25),22-decaen-22-amine] | < 50 nM | < 50 nM | < 50 nM | < 50 nM | > 500 nM | 0.1 to 50 nM | 0.1 to 50 nM | 0.1 to 50 nM | 50 to 500 nM | > 500 nM | A (bin A for very high selectivity, ratio >30-fold) | A (bin A for very high selectivity, ratio >30-fold) | A (bin A for very high selectivity, ratio >30-fold) | A (bin A for very high selectivity, ratio >30-fold)
Cc1nn(CC2CC2)c2c1Cc1nn(C)nc1-c1ccc(F)cc1[C@@H](C)Oc1cc-2cnc1N [Example 65] | < 50 nM | < 50 nM | < 50 nM | < 50 nM | > 500 nM | 0.1 to 50 nM | 0.1 to 50 nM | 0.1 to 50 nM | 0.1 to 50 nM | > 500 nM | A (bin A for very high selectivity, ratio >30-fold) | A (bin A for very high selectivity, ratio >30-fold) | A (bin A for very high selectivity, ratio >30-fold) | A (bin A for very high selectivity, ratio >30-fold)

The next lines start with results.

Ki [1] | Ki [2] | Ki [3] | Ki [4] | Ki [5] | IC50 [6] | IC50 [7] | IC50 [8] | IC50 [9] | IC50 [10] | Compound | TPM3-NTRK1-wt/CD74-ROS1-G2032R selectivity ratio [11] | TPM3-NTRK1-wt/CD74-ROS1-wt selectivity ratio [11] | TPM3-NTRK1-wt/EML4-ALK-L1196M-G1202R selectivity ratio [11] | TPM3-NTRK1-wt/EML4-ALK-wt selectivity ratio [11]
< 50 nM | < 50 nM | < 50 nM | < 50 nM | 50 to 500 nM | 0.1 to 50 nM | 0.1 to 50 nM | 0.1 to 50 nM | 0.1 to 50 nM | 50 to 500 nM | CCn1ncc2c1-c1cnc(N)c(c1)O[C@H](C)c1cc(F)ccc1-c1oc(C)nc1C2 [Example 66, (19R)-3-ethyl-16-fluoro-10,19-dimethyl-11,20-dioxa-3,4,9,23-tetraazapentacyclo[19.3.1,0^2,^6.0^8,^12.0^13,^18]pentacosa-1(24),2(6),4,8(12),9,13,15,17,21(25),22-decaen-22-amine] | A (bin A for very high selectivity, ratio >30-fold) | A (bin A for very high selectivity, ratio >30-fold) | C (bin C for moderate selectivity, ratio ≥1) | B (bin B for high selectivity, ratio >10-fold)
< 50 nM | < 50 nM | < 50 nM | < 50 nM | > 500 nM | 0.1 to 50 nM | 0.1 to 50 nM | 0.1 to 50 nM | 0.1 to 50 nM | > 500 nM | C[C@H]1Oc2cc(cnc2N)-c2c(cnn2CC2CC2)Cc2nn(C)nc2-c2ccc(F)cc21 [Example 69, (19R)-3-(cyclopropylmethyl)-16-fluoro-10,19-dimethyl-20-oxa-3,4,9,10,11,23-hexaazapentacyclo[19.3.1.0^2,^6.0^8,^12.0^13,^18]pentacosa-1(24),2(6),4,8,11,13,15,17,21(25),22-decaen-22-amine] | A (bin A for very high selectivity, ratio >30-fold) | A (bin A for very high selectivity, ratio >30-fold) | A (bin A for very high selectivity, ratio >30-fold) | A (bin A for very high selectivity, ratio >30-fold)
< 50 nM | < 50 nM | < 50 nM | < 50 nM | > 500 nM | 0.1 to 50 nM | 0.1 to 50 nM | 0.1 to 50 nM | 50 to 500 nM | > 500 nM | C[C@H]1Oc2cc(cnc2N)-c2c(cnn2CC2CC2)Cn2ncnc2-c2ccc(F)cc21 [Example 70, (19R)-3-(cyclopropylmethyl)-16-fluoro-19-methyl-20-oxa-3,4,8,9,11,23-hexaazapentacyclo[19.3.1.0^2,^6.0^8,^12.0^13,^18]pentacosa-1(24),2(6),4,9,11,13,15,17,21(25),22-decaen-22-amine] | A (bin A for very high selectivity, ratio >30-fold) | A (bin A for very high selectivity, ratio >30-fold) | A (bin A for very high selectivity, ratio >30-fold) | A (bin A for very high selectivity, ratio >30-fold)
